Source: patent publication US20260242395A1, “AMINOHETEROARYL KINASE INHIBITORS” (ALLORION THERAPEUTICS INC, priority 2022, published 2026)
pIC50: −log10 of the molar value.

Columns and labels:
CDK6/CyclinD3 = molecular target: T1, CDK6/CyclinD3 (Homo sapiens, UniProt Q00534); assay: CDK6/CyclinD3 kinase inhibitory activity (Caliper mobility shift); type: biochemical; settings: enzyme 15 nM, ATP 800 μM, 28° C. 30 min; read-out: CDK6/Cyclin D3 IC50
T1 construct: purchased Carna 04-107
Description: CDK6/CyclinD3 kinase inhibitory activity (IC50): 5 μl of various dilutions of test compound in 1× kinase buffer (50 mM HEPES pH 7.5, 10 mM MgCl2, 2 mM DTT and 0.01% Brij-35) was mixed with 10 μL of CDK6/CyclinD3 (Carna, 04-107 #, final concentration 15 nM in 1× Kinase buffer) in 384 plates and incubated at room temperature for 10 min. To initiate each reaction, 10 μL of peptide solution containing fluorescently-labeled -peptide 8(5-FAM-IPTSPITTTYFFFKKK-COOH, GL, 112396 #, final concentration 3000 nM) and ATP (final concentration 800 μM for CDK6/CyclinD3 in 1× Kinase buffer was added to each of the wells containing test compound and CDK6/CyclinD3. The reaction is then allowed to proceed at 28° C. for 30 min and terminated by the addition of 25 μL stop buffer (100 mM HEPES pH 7.5, 50 mM EDTA, 0.2% Coating Reagent #3 (Perkin Elmer, 760050 #) and 0.015% Brij-35).
(§1) Following the kinase reaction, Caliper EZ reader II (Downstream voltages: −500V, Upstream voltages: −2250V, Base pressure −0.5 PSI, Screen pressure −1.2 PSI) was used to separate the phosphorylated (product) and the unphosphorylated (substrate) fluorescently-labeled peptide 8 based on their different mobility. Both substrate and product were measured and the ratio of these values were used to generate % conversion by Caliper EZ reader II. These conversion values were then transformed into % inhibition of kinase activity using the formula: % Inhibition=[(MA−X)/(MA−MI)]×100% where MA=conversion value of DMSO only controls, MI=conversion value of no enzyme controls and X=conversion value at any given compound dose. IC50 values were then calculated by plotting dose-response curves and then using the XLfit application in Excel software.

CDK4/CyclinD1 = molecular target: T2, CDK4/CyclinD1 (Homo sapiens, UniProt P11802); assay: CDK4/CyclinD1 kinase inhibitory activity (Caliper mobility shift); type: biochemical; settings: enzyme 20 nM, ATP 672 uM, 28° C. 30 min; read-out: CDK4/Cyclin D1 IC50
T2 construct: purchased ProQinase 0142-0143-1
T2 sequence (P11802 whole entry): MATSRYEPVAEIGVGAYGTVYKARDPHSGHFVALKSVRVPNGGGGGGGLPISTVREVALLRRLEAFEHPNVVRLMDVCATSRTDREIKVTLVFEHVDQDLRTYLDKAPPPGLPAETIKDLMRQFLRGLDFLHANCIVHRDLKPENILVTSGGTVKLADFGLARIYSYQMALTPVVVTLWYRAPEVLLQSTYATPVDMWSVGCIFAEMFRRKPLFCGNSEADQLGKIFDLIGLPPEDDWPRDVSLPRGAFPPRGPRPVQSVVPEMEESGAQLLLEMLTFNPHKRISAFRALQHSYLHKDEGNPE
T2 sequence (P24385 whole entry partner): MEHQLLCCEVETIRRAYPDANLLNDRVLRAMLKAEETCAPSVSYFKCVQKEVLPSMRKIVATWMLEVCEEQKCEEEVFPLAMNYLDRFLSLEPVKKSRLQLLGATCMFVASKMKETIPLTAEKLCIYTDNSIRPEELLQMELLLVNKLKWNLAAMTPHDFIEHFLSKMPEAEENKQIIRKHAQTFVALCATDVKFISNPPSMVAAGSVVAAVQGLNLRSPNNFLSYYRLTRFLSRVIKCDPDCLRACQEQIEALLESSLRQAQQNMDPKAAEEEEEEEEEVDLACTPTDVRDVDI
Description: CDK4/CyclinD1 kinase inhibitory activity (IC50): 5 μl of various dilutions of test compound in 1× kinase buffer (20 mM HEPES, pH 7.5, 10 mM MgCl2, 2 mM DTT and 0.01% Triton X-100) was mixed with 10 μL of either CDK4/Cyclin D1 (ProQinase, 0142-0143-1 #, final concentration 20 nM in 1× Kinase buffer) or in 384 plates and incubated at room temperature for 10 min. To initiate each reaction, 10 μL of peptide solution containing fluorescently-labeled-peptide 8(5-FAM-IPTSPITTTYFFFKKK-COOH, GL, 112396 #, final concentration 3000 nM) and ATP (final concentration 672 uM for CDK4/CyclinD1) in 1×Kinase buffer was added to each of the wells containing test compound and CDK4/CyclinD1 mixture. The reaction is then allowed to proceed at 28° C. for 30 min and terminated by the addition of 25 μL stop buffer (100 mM HEPES pH 7.5, 50 mM EDTA, 0.2% Coating Reagent #3 (Perkin Elmer, 760050 #) and 0.015% Brij-35).
as §1

T1 sequence (Q00534 whole entry): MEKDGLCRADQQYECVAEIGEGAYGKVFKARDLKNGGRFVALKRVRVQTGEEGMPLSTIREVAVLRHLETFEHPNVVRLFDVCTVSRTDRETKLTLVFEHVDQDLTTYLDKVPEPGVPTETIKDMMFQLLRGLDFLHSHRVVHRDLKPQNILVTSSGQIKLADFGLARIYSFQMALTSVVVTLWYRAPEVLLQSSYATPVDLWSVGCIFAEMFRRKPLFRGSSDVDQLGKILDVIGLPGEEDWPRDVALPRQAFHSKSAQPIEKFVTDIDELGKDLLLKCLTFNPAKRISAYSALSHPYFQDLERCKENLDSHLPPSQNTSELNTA
T1 sequence (P30281 whole entry partner): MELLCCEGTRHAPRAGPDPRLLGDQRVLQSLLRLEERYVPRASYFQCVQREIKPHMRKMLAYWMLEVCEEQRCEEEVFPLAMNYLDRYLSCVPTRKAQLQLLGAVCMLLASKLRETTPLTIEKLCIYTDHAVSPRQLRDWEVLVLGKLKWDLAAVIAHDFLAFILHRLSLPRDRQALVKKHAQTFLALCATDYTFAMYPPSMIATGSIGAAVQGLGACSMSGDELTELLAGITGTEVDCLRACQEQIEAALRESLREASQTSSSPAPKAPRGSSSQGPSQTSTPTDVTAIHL

Structure (SMILES)	pIC50 (CDK6/CyclinD3)	pIC50 (CDK4/CyclinD1)
[2H]c1nc(N[C@@H]2CCOC[C@H]2O)nc(-c2cc(F)c3nc(C)c(C(C)NC4CC4)cc3c2)c1F (single isomer, unassigned) [Example 77a]	6.00 to 7.00	> 8.00
[2H]c1nc(N[C@@H]2CCOC[C@H]2O)nc(-c2cc(F)c3nc(C)c(C(C)NC4CC4)cc3c2)c1F (single isomer, unassigned) [Example 77b]	6.00 to 7.00	> 8.00
Cc1nc2c(F)cc(-c3ccnc(N[C@@H]4CCOC[C@H]4O)n3)cc2c(C)c1C(C)O (single isomer, unassigned) [Example 82a]	6.00 to 7.00	7.00 to 8.00
Cc1nc2c(F)cc(-c3ccnc(N[C@@H]4CCOC[C@H]4O)n3)cc2c(C)c1C(C)O (single isomer, unassigned) [Example 82b]	6.00 to 7.00	7.00 to 8.00
[2H]c1nc(N[C@@H]2CCOC[C@H]2O)nc(-c2cc(F)c3nc(C)c(C(C)O)c(C)c3c2)c1F (single isomer, unassigned) [Example 84a]	7.00 to 8.00	> 8.00
[2H]c1nc(N[C@@H]2CCOC[C@H]2O)nc(-c2cc(F)c3nc(C)c(C(C)O)c(C)c3c2)c1Cl (single isomer, unassigned) [Example 85a]	7.00 to 8.00	> 8.00
[2H]c1nc(N[C@@H]2CCOC[C@H]2O)nc(-c2cc(F)c3nc(C)c(C(C)O)c(C)c3c2)c1Cl (single isomer, unassigned) [Example 85b]	7.00 to 8.00	> 8.00
Cc1c(C(C)O)cnc2c(F)cc(-c3nc(N[C@@H]4CCOC[C@H]4O)ncc3Cl)cc12 (single isomer, unassigned) [Example 88b]	7.00 to 8.00	> 8.00
CC(NC1CC1)c1cnc2c(F)cc(-c3nc(N[C@@H]4CCOC[C@H]4O)ncc3Cl)cc2c1Cl (single isomer, unassigned) [Example 90a]	6.00 to 7.00	7.00 to 8.00
CC(NC1CC1)c1cnc2c(F)cc(-c3nc(N[C@@H]4CCOC[C@H]4O)ncc3Cl)cc2c1Cl (single isomer, unassigned) [Example 90b]	6.00 to 7.00	> 8.00
Cc1c(C(C)NC2CC2)cnc2c(F)cc(-c3nc(N[C@@H]4CCOC[C@H]4O)ncc3Cl)cc12 (single isomer, unassigned) [Example 91a]	6.00 to 7.00	7.00 to 8.00
Cc1c(C(C)NC2CC2)cnc2c(F)cc(-c3nc(N[C@@H]4CCOC[C@H]4O)ncc3F)cc12 (single isomer, unassigned) [Example 93a]	6.00 to 7.00	7.00 to 8.00
Cc1c(C(C)NC2CC2)cnc2c(F)cc(-c3nc(N[C@@H]4CCOC[C@H]4O)ncc3F)cc12 (single isomer, unassigned) [Example 93b]	6.00 to 7.00	> 8.00
CC1(C)NCc2c(cnc3c(F)cc(-c4nc(N[C@@H]5CCOC[C@H]5O)ncc4F)cc23)C1O (single isomer, unassigned) [Example 106a]	6.00 to 7.00	> 8.00
COC1c2cnc3c(F)cc(-c4nc(N[C@@H]5CCOC[C@H]5O)ncc4F)cc3c2CNC1(C)C (single isomer, unassigned) [Example 108a]	≤ 6.00	7.00 to 8.00
COC1c2cnc3c(F)cc(-c4nc(N[C@@H]5CCOC[C@H]5O)ncc4F)cc3c2CNC1(C)C (single isomer, unassigned) [Example 108b]	6.00 to 7.00	> 8.00
CN1Cc2c(cnc3c(F)cc(-c4nc(N[C@@H]5CCOC[C@H]5O)ncc4Cl)cc23)C(O)C1(C)C (single isomer, unassigned) [Example 111a]	6.00 to 7.00	7.00 to 8.00
CN1Cc2c(cnc3c(F)cc(-c4nc(N[C@@H]5CCOC[C@H]5O)ncc4Cl)cc23)C(O)C1(C)C (single isomer, unassigned) [Example 111b]	≤ 6.00	6.00 to 7.00

Structure (SMILES)	pIC50 (CDK6/CyclinD3)	pIC50 (CDK4/CyclinD1)
CC(C)(O)c1cnc2c(F)cc(-c3nc(N[C@@H]4CCOC[C@H]4O)ncc3C#N)cc2c1 [Example 2, 4-(8-fluoro-3-(2-hydroxypropan-2-yl)quinolin-6-yl)-2-(((3S,4R)-3-hydroxytetrahydro-2H-pyran-4-yl)amino)pyrimidine-5-carbonitrile]	6.00 to 7.00	7.00 to 8.00
Cc1cc(C(C)(C)O)c2cc(-c3nc(N[C@@H]4CCOC[C@H]4O)ncc3Cl)ccc2n1 [Example 4, (3S,4R)-4-((5-chloro-4-(4-(2-hydroxypropan-2-yl)-2-methylquinolin-6-yl)pyrimidin-2-yl)amino)tetrahydro-2H-pyran-3-ol]	6.00 to 7.00	6.00 to 7.00
CC(C)(O)c1cnc2ccc(-c3nc(N[C@@H]4CCOC[C@H]4O)ncc3Cl)cc2c1 [Example 6, (3S,4R)-4-((5-chloro-4-(3-(2-hydroxypropan-2-yl)quinolin-6-yl)pyrimidin-2-yl)amino)tetrahydro-2H-pyran-3-ol]	6.00 to 7.00	7.00 to 8.00
Cc1nc2c(cnc3ccc(-c4nc(N[C@@H]5CCOC[C@H]5O)ncc4Cl)cc32)[nH]1 [Example 10, (3S,4R)-4-((5-chloro-4-(2-methyl-3H-imidazo[4,5-c]quinolin-8-yl)pyrimidin-2-yl)amino)tetrahydro-2H-pyran-3-ol]	≤ 6.00	6.00 to 7.00
Cc1n[nH]c2cnc3ccc(-c4nc(N[C@@H]5CCOC[C@H]5O)ncc4Cl)cc3c12 [Example 11, (3S,4R)-4-((5-chloro-4-(1-methyl-3H-pyrazolo[3,4-c]quinolin-8-yl)pyrimidin-2-yl)amino)tetrahydro-2H-pyran-3-ol]	6.00 to 7.00	7.00 to 8.00
Cc1n[nH]c2c1-c1cc(-c3nc(N[C@@H]4CCOC[C@H]4O)ncc3Cl)ccc1OC2 [Example 13, (3S,4R)-4-((5-chloro-4-(1-methyl-3,4-dihydrochromeno[3,4-c]pyrazol-8-yl)pyrimidin-2-yl)amino)tetrahydro-2H-pyran-3-ol]	6.00 to 7.00	7.00 to 8.00
O[C@@H]1COCC[C@H]1Nc1ncc(Cl)c(-c2cc(F)c3ncc(C4(O)CCC4)cc3c2)n1 [Example 16, (3S,4R)-4-((5-chloro-4-(8-fluoro-3-(1-hydroxycyclobutyl)quinolin-6-yl)pyrimidin-2-yl)amino)tetrahydro-2H-pyran-3-ol]	6.00 to 7.00	> 8.00
O[C@@H]1COCC[C@H]1Nc1ncc(Cl)c(-c2cc(F)c3ncc(-c4ncc[nH]4)cc3c2)n1 [Example 28]	6.00 to 7.00	7.00 to 8.00
Cc1nc2c(F)cc(-c3nc(N[C@@H]4CCOC[C@H]4O)ncc3Cl)cc2c2c1CCNC2 [Example 33]	6.00 to 7.00	> 8.00
CC(C)(O)c1cnc2c(F)cc(-c3cc(N[C@@H]4CCOC[C@H]4O)ncc3Cl)cc2c1Cl [Example 42]	6.00 to 7.00	> 8.00
COc1c(C(C)(C)O)cnc2c(F)cc(-c3nc(N[C@@H]4CCOC[C@H]4O)ncc3Cl)cc12 [Example 43]	6.00 to 7.00	> 8.00
O[C@@H]1COCC[C@H]1Nc1ncc(Cl)c(-c2cc(F)c3ncc(C4(O)CC4)c(Cl)c3c2)n1 [Example 44]	7.00 to 8.00	> 8.00
CC(C)(O)C1COc2c(F)cc(-c3nc(N[C@@H]4CCOC[C@H]4O)ncc3Cl)cc2C1 (stereo partly drawn) [Example 46]	6.00 to 7.00	> 8.00
CC(C)(O)C1COc2c(F)cc(-c3nc(N[C@@H]4CCOC[C@H]4O)ncc3Cl)cc2C1 (stereo partly drawn) [Example 47]	6.00 to 7.00	7.00 to 8.00
CC1(C)Cc2cnc3c(F)cc(-c4nc(N[C@@H]5COC[C@H]5O)ncc4Cl)cc3c2CN1 [Example 50]	≤ 6.00	7.00 to 8.00
Cc1nc2c(F)cc(-c3nc(N[C@@H]4CCOC[C@H]4O)ncc3F)cc2cc1C(C)(C)O [Example 51]	6.00 to 7.00	> 8.00
CC(C)(O)c1cnc2c(F)cc(-c3nc(N[C@@H]4CCOC[C@H]4O)ncc3Cl)cc2c1F [Example 53]	6.00 to 7.00	> 8.00
CC(C)(O)c1cnc2c(F)cc(-c3nc(Nc4ccc(-c5cn[nH]c5)cn4)ncc3F)cc2c1Cl [Example 55]	≤ 6.00	> 8.00
